The text below walks through data of article PMC9887206, “Cationic biopolymer decorated Asiatic Acid and Centella asiatica extract incorporated liposomes for treating early-stage Alzheimer’s disease: An In-vitro and In-vivo investigation” (F1000Research, 2022).

The nature of series [1]: In-vitro drug release, Franz diffusion cell with dialysis membrane. Particulars: in around 10 hours. It is filed as physicochemical. The procedure: The % drug release from CLCAE and CLAA were measured through Franz diffusion cell using sigma dialysis membrane and the release rate was compared with AA and CAE. 1 mL sample (100 mg/mL) was kept on one side, while the other part of the membrane was filled with the acidic buffer pH 1.2 (200 mL) dissolution media for two hours. It was then replaced with phosphate buffer pH 7.2 (2–24 hours) with 0.25% w/v sodium lauryl sulphate as two separate media to simulate the stomach and intestinal conditions. The media were sustained at the temperature of 37°C on a magnetic stirrer. A 5 mL sample was withdrawn with the specific intervals and the condition of the sink was kept constant by refilling the same volume of media. Samples were analysed and compared using RP-HPLC at 210 nm. To assess the drug release strategy from the optimised CLAA, the data were fitted to various in vitro kinetic release models like Korsmeyer-Peppas, Higuchi, Zero and First Order models. ^, [36]

The nature of series [2]: In-vitro antioxidant activity (DPPH inhibition). Particulars: at 50 μg/mL, n ≥ 3. It is filed as biochemical. The procedure: The prepared formulations' and AA's abilities to neutralise free radicals were determined in vitro and compared with standard ascorbic acid. In this method, free radical DPPH (2,2-diphenyl-1-picrylhydrazyl) was selected as described by Jamuna S. et al. 1.5 mL of 0.1mM free radial DPPH was treated with 3.5mL of 10 to 50 μg/mL concentrated methanolic solution of AA, CAE, optimised CLCAE, and CLAA. The absorbance of all the samples was measured at 518 nm through ELISA plate reader (version AM-2100, USA). The percentage of DPPH inhibition was measured through the formula. %Inhibition of DPPH=Absorptioncontrol−Absorptionsample/Absorptioncontrol×100

Series [3] in a line: Ex vivo drug permeation, non-everted gut sac. It is filed as in vitro ADME, rats. To be noted: throughout 8 hours, non-everted rat intestinal sac. The procedure: The drug intestinal permeation studies of both the optimised formulations were determined using non-everted gut sac procedure. ^, [40] The rats were sacrificed and small intestine was treated with oxygenated saline. The intestine was split into […] sacs that were 8 cm long and loaded with optimised CLCAE and CLAA (~100 mg AA). The thread was used to bind the sac's ends and located in a conical flask filled with ringer’s solution of pH 9 (10 ml). 37°C temperature was kept constant in a water bath shaker at 75 rpm with 5% CO 2 aeration. Every 20 min, for a maximum of 8 h, the samples were removed and substituted with the fresh media. RP-HPLC was used to analyse the screened sample.

A short description of series [4]: Oral bioavailability study, AA in rat serum. It is filed as in vivo, wistar rats. The procedure: The sum of drug availability after oral intake of AA, CLCAE, and CLAA was performed on three groups of 150-200g wistar rats (n=6). Prior to the procedure, the animals underwent an overnight fast with unlimited access to water. Group I was treated with a single dose of AA (100 mg/kg,p.o.) whereas group II, and III animals received single dose of optimised CLCAE and CLAA (~100 mg/k.g AA, p.o.), respectively. After the dosing, the animals were partially anesthetised using […], from the retro-orbital plexus 1 mL of blood samples were collected in centrifuge tubes at a predetermined time of up to 8 h. To isolate the contents, the serum sample was spun up at 3000 rpm for 10 min. The AA was quantified by RP-HPLC.
Initially, the mixture of 1 mL serum and 5 mL methanol were taken in a volumetric flask at room temperature. The sample was properly mixed before being heated for 30 min at 55°C. After that, a 10 mL flask was made up with methanol and centrifugation for 30 min at 5000 rpm (Remi Elektrotechnik Ltd. India). 20 μL of filtered supernatant was taken for analysis.
Depends on plasma concentration-time curve parameters, the C max and T max of CLCAE and CLAA were analysed. The pharmacokinetic parameters were successfully interpreted through PK/PD computer software version 4.1, USA, which includes measurement drug plasma concentration from zero to last measured sample (AUC 0 -t) and from zero to infinity (AUC 0-∞) measurement of drug elimination half-life (K 1/2el) and elimination rate constant (K el) clearance (Cl) and volume of distribution (V d). The relative bioavailability (F) of both the formulations was determined using the following formula. F=Total amount of drug absorbed from formulation(Amaxformulation)/Total amount of drug absorbed from pureAAAmaxpureAA×100 F=VdXKelXAUC0−∞formulation/VdXKelXAUC0−∞pureAA×100

The conditions of series [5]: cited from earlier work.
The conditions of series [6]: rat p.o; cited from earlier work.
Where [7] appears, read: Wistar, single oral dose ~100 mg/kg AA.

In the case of `C[C@H]1[C@H](C)CC[C@]2(C(=O)O)CC[C@]3(C)C(=CC[C@@H]4[C@@]5(C)C[C@@H](O)[C@H](O)[C@@](C)(CO)[C@@H]5CC[C@]43C)[C@H]12` [AA, Asiatic acid], the “In vitro drug release” value in series [1] came to 65.34%. Further, the “Percentage of inhibition of DPPH” value in series [2] came out at 65.4 ±1.2%. Further, the “Amount of drug permeated (ex vivo)” value in series [3] is on record as 30.90%. Further, the Tmax in series [4] (Wistar, 100 mg/kg, single oral dose, read-out: Time of maximum serum concentration) amounted to 4 h. In series [4] (setting [7]), this compound returned an area under the curve AUC(0-t) of 40500 ± 1160 ng·h/mL and a Cmax of 3430 ± 120 ng/mL. Besides, in series [4] (Wistar, single oral dose ~100 mg/kg AA, read-out: Elimination half-life (t1/2el) (converted)), the half-life was 1.97 ± 0.1 h. The k el in series [4] (Wistar, single oral dose ~100 mg/kg AA, read-out: Elimination rate constant (Kel) (converted)) was 0.000142 s⁻¹. The compound also had a Maximum serum concentration in series [4] (single oral dose) of 3.43 ± 0.12 µg/mL. Further, in series [4] (single oral dose ~100 mg/kg AA), the “Clearance (Cl)” value is on record as 0.55 ± 0.002 L h ^−1 and the “Volume of distribution (Vd)” value was 1.62 ± 0.26 L. For the same compound, in series [5], the Solubility in water entry is recorded as “insoluble in water”. The BCS class result in series [5] (poor aqueous solubility and permeability) is “BCS IV”.

Regarding `O=C1O[C@H]([C@@H](O)CO)C(O)=C1O` [ascorbic acid, reference compound], the “Percentage of inhibition of DPPH” value in series [2] was 90.75 ± 1.45%.

For `ClCCl` [dichloromethane], the LD50 in series [6] is 1200 mg/kg.

The term AUC(0-t) denotes the area under the concentration-time curve up to a stated or last time point. As a reminder, the Cmax is the highest concentration seen after dosing. Usually LD50 stands for the dose expected to kill half of the subjects tested.
